Experiment: xn = mol fraction of the nth substance listed
Details: 101 kPa, Liquid; for speed of sound: Pulse-echo method

Cc1cccc(Cl)c1 [3-chlorotoluene] + CCCCCCCCCCO
Details	mass density, 303.15 K [kg/m3]	mass density, 308.15 K [kg/m3]	speed of sound, 303.15 K [m/s]	speed of sound, 308.15 K [m/s]	viscosity, 303.15 K [mPa·s]	viscosity, 308.15 K [mPa·s]
x1 = 0.0745	834.43	830.88	1355.2	1335	8.289	6.908
x1 = 0.1337	844.01	840.4	1347	1325.8	7.171	6.001
x1 = 0.2017	855.5	851.82	1337.4	1315.4	6.013	5.022
x1 = 0.2741	868.42	864.64	1327.4	1305	4.905	4.123
x1 = 0.3471	882.21	878.33	1318	1295.4	3.977	3.348
x1 = 0.4139	895.58	891.6	1309.9	1287.6	3.261	2.771
x1 = 0.4616	905.65	901.59	1304.4	1282.4	2.821	2.423
x1 = 0.5532	926.26	922.06	1295.5	1273.9	2.161	1.862
x1 = 0.6282	944.59	940.26	1289.3	1268.3	1.744	1.521
x1 = 0.6772	957.36	952.94	1285.8	1265.4	1.523	1.343
x1 = 0.7447	976.11	971.61	1281.9	1261.9	1.282	1.142
x1 = 0.8245	1000.26	995.7	1278.3	1258.4	1.063	0.96
x1 = 0.8876	1021.06	1016.44	1276.7	1257.5	0.934	0.851
x1 = 0.9433	1040.84	1036.25	1276.5	1257.8	0.844	0.777
x1 = 1	1062.81	1058.33	1280.1	1262.1	0.746	0.705
